# Results: paper PMC2853757 (Analytical biochemistry, 2009)
# Key:
# [1] = target: V-ATPase (vacuolar proton translocating ATPase) (Saccharomyces cerevisiae, UniProt P25515+P32563); assay: BCECF flow cytometry dose response in living yeast; type: cell-based
# [2] = target: V-ATPase (vacuolar proton translocating ATPase; catalytic subunit A) (Saccharomyces cerevisiae, UniProt P16140+P17255); assay: ATP hydrolysis; type: biochemical
# V-ATPase (vacuolar proton translocating ATPase; catalytic subunit A), sequence (P17255 2-283): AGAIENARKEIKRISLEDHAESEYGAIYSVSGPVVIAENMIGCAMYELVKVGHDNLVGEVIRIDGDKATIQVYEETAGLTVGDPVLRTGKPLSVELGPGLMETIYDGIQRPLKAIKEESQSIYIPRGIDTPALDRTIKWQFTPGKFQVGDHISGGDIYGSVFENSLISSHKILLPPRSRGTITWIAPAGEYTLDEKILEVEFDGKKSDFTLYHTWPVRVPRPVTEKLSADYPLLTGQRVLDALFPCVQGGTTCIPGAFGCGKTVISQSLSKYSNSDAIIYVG
# V-ATPase (vacuolar proton translocating ATPase; catalytic subunit A), sequence (P17255 738-1071): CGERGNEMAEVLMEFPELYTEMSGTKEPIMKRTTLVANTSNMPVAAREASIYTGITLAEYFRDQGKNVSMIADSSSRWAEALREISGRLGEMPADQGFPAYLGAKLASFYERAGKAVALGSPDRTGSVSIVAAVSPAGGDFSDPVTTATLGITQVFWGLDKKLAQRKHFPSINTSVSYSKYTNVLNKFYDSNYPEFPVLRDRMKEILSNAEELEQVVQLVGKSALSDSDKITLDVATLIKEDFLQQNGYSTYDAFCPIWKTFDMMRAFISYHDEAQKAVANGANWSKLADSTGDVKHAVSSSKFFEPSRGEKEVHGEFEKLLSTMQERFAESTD
# V-ATPase (vacuolar proton translocating ATPase; catalytic subunit A), sequence (P16140 2-517): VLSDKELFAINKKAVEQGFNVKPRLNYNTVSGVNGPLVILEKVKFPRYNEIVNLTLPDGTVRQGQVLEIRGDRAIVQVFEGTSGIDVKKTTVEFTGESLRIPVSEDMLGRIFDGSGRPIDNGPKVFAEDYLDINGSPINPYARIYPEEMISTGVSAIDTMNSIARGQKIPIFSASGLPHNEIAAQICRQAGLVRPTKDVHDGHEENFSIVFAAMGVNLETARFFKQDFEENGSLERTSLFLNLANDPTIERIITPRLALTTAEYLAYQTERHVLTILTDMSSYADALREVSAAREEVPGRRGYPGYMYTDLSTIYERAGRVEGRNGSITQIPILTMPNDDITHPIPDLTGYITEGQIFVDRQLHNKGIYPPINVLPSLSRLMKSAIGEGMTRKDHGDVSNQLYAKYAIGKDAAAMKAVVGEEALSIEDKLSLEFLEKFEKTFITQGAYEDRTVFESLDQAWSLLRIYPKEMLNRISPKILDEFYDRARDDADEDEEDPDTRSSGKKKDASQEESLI
# V-ATPase (vacuolar proton translocating ATPase; catalytic subunit A), sequence (P25515 whole entry partner): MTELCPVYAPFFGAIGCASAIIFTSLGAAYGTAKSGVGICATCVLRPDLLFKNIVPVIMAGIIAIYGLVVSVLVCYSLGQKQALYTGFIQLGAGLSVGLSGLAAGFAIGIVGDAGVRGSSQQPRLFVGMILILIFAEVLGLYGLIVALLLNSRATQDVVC
# V-ATPase (vacuolar proton translocating ATPase; catalytic subunit A), sequence (P32563 2-840 partner): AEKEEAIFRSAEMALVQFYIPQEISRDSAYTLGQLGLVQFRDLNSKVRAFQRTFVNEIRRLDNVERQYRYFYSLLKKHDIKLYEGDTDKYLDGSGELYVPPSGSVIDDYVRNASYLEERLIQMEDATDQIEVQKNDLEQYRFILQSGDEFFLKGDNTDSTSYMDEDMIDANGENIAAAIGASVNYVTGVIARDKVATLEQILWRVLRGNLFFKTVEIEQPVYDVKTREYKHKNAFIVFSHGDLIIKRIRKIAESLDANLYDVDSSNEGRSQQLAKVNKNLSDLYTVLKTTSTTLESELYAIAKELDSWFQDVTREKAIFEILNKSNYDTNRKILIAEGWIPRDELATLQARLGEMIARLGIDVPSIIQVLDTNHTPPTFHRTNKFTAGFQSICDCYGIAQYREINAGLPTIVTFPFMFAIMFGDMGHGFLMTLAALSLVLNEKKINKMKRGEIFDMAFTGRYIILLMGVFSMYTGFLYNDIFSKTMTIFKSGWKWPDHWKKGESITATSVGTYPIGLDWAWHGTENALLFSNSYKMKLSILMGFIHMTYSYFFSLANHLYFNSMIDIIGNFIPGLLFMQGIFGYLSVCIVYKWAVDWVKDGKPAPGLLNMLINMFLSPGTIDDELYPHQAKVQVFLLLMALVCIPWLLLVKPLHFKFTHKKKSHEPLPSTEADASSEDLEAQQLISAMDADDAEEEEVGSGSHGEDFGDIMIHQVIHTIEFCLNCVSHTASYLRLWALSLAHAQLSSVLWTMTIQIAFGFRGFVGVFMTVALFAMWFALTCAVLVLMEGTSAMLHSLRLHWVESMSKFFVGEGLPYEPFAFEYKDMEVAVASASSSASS
SMILES,EC50 [1] [µM],EC50 [2] [µM]
C/C=C/[C@H]1O[C@@](O)([C@@H](C)[C@H](O)[C@H](C)[C@H]2OC(=O)/C(OC)=C/C(C)=C/[C@@H](C)[C@@H](O)[C@@H](CC)[C@@H](O)[C@H](C)C/C(C)=C/C=C/[C@@H]2OC)C[C@@H](O[C@H]2C[C@@H](O)[C@H](OC(N)=O)[C@@H](C)O2)[C@@H]1C [concanamycin A],2.1 to 2.27,
CCN(CC)C(=S)SSC(=S)N(CC)CC [disulfiram],,24.7
